From patent US4511509A, “3-Alkylidine azetidine compound and their production” (Kowa Co. Ltd., priority 1982, dated 1985)
≈ marks a conversion by molar mass, not a printed value.

Tests used:
Assay in all cases: antibacterial activity, MIC (Table)
Format in all cases: cell-based
[1] = test system: Escherichia coli 59 (PC ase II)
[2] = test system: Bacillus subtilis ATCC 6633; conditions: ATCC6633
[3] = test system: Streptococcus aureus Smith
[4] = test system: Escherichia coli RECl (PC ase I)
Proteus inconstans 93 = conditions: Providencia alcalifaciens
Serratia marcescens NHL = test system: Serratia marcescens NHL
[5] = test system: Streptococcus aureus 209p JC-1
Proteus vulgaris IID874 = test system: Proteus vulgaris IID874
Proteus inconstans 113 = conditions: Providencia alcalifaciens
Salmonella typhi H - 901 = conditions: Salmonella enterica
[6] = test system: Escherichia coli 68 (PC ase IV)
[7] = test system: Escherichia coli NIHJ JC-2; conditions: NIHJJC2
[8] = test system: Pseudomonas aeruginosa NCTC 10490; conditions: NCTC10490
[9] = test system: Klebsiella pneumoniae PCO 602; conditions: PCO602
[10] = test system: Pseudomonas putida IID 5121; conditions: IID5121

C/C(CO)=C1\C(=O)N2C(C(=O)O)=C(Sc3ncccn3)C[C@H]12 [(5R)6(E)-(1-methyl-2-hydroxyethylidene)-3-(2-pyrimidinylthio)-1-azabicyclo[3.2.0]hept-2-en-7-one-2-carboxylic acid]
MIC [1]: 0.2 µg/mL (≈ 0.626 µM)
MIC [2]: 0.78 µg/mL (≈ 2.44 µM)
MIC [3]: 0.2 µg/mL (≈ 0.626 µM)
MIC [4]: 0.39 µg/mL (≈ 1.22 µM)
MIC (Proteus inconstans 93): 0.2 µg/mL (≈ 0.626 µM)
MIC (Serratia marcescens NHL): 0.78 µg/mL (≈ 2.44 µM)
MIC [5]: 0.05 µg/mL (≈ 0.157 µM)
MIC (Proteus vulgaris IID874): 0.05 µg/mL (≈ 0.157 µM)
MIC (Proteus inconstans 113): 0.78 µg/mL (≈ 2.44 µM)
MIC (Salmonella typhi H - 901): 0.2 µg/mL (≈ 0.626 µM)
MIC [6]: 0.2 µg/mL (≈ 0.626 µM)
MIC [7]: 0.39 µg/mL (≈ 1.22 µM)
MIC [8]: 1.56 µg/mL (≈ 4.89 µM)
MIC [9]: 0.39 µg/mL (≈ 1.22 µM)
MIC [10]: 100 µg/mL (≈ 313 µM)
